According to ChEMBL document CHEMBL1221195, “Post-translational enzyme activation in an animal via optimized conditional protein splicing” (2007):
The source made the active and inactive calls. The rule behind the calls is not given here.

Columns and labels:
S2 [1] = test: Induction of luciferase protein trans-splicing in Drosophila melanogaster S2 cells transfected with N-luc and C-luc assessed as increase in luciferase activity at 100 nM after 4 hrs by Western blot analysis; type: functional, cell-based
S2 [2] = test: Induction of luciferase protein trans-splicing in Drosophila melanogaster S2 cells transfected with N-luc and C-luc assessed as increase in luciferase activity after 4 hrs by Western blot analysis; type: functional, cell-based
S2 [3] = test: Induction of luciferase protein trans-splicing in Drosophila melanogaster S2 cells transfected with N-luc C1A mutant and C-luc N45A mutant assessed as increase in luciferase activity at 100 nM after 4 hrs by Western blot analysis; type: functional, cell-based
S2 [4] = test: Induction of luciferase protein trans-splicing in Drosophila melanogaster S2 cells transfected with N-luc and C-luc assessed as increase in luciferase activity at 100 nM after 4 hrs at 25 degC; type: functional, cell-based
[5] = Induction of luciferase protein trans-splicing in Drosophila melanogaster S2 cells transfected with N-luc and C-luc assessed as increase in luciferase activity at 100 nM after 4 hrs at 21 degC relative to control; type: functional
[6] = Induction of luciferase protein trans-splicing in Drosophila melanogaster S2 cells transfected with N-luc and C-luc assessed as increase in luciferase activity at 100 nM after 4 hrs at 28 degC relative to control; type: functional
[7] = Induction of luciferase protein trans-splicing in Drosophila melanogaster S2 cells transfected with N-luc and C-luc and FRB assessed as increase in luciferase activity at 100 nM after 4 hrs relative to control; type: functional
[8] = Induction of luciferase protein trans-splicing in Drosophila melanogaster S2 cells transfected with N-luc and C-luc and 2 copies of FRB assessed as increase in luciferase activity at 100 nM after 4 hrs relative to control; type: functional
[9] = Induction of luciferase protein trans-splicing in Drosophila melanogaster S2 cells transfected with N-luc and C-luc and 3 copies of FRB assessed as increase in luciferase activity at 100 nM after 4 hrs relative to control; type: functional
S2 [10] = test: Induction of luciferase protein trans-splicing in Drosophila melanogaster S2 cells transfected with N-luc and C-lucFRB2 assessed as increase in luciferase activity at 100 nM after 4 hrs; type: functional, cell-based; conditions: TDE = time-dependent effect
S2 [11] = test: Induction of luciferase protein trans-splicing in Drosophila melanogaster S2 cells transfected with N-luc and C-lucFRB2 assessed as increase in luciferase activity pretreated with ascomycin for 15 mins measured at 100 nM after 4 hrs; type: functional, cell-based
S2 [12] = test: Induction of luciferase protein trans-splicing in Drosophila melanogaster S2 cells transfected with N-luc and C-lucFRB2 assessed as increase in luciferase activity pretreated with ascomycin for 60 mins measured at 100 nM after 4 hrs; type: functional, cell-based
Drosophila melanogaster [13] = test: Activation of luciferase in Drosophila melanogaster containing genomically integrated luciferase CPS at 100 uM; type: functional, organism-based
Drosophila melanogaster [14] = test: Activation of luciferase in Drosophila melanogaster containing genomically integrated luciferase CPS at 100 uM by Western blot method; type: functional, organism-based

In the case of CO[C@H]1C[C@@H]2CC[C@@H](C)[C@@](O)(O2)C(=O)C(=O)N2CCCC[C@H]2C(=O)O[C@H]([C@H](C)C[C@@H]2CC[C@@H](O)[C@H](OC)C2)CC(=O)[C@H](C)/C=C(\C)[C@@H](O)[C@@H](OC)C(=O)[C@H](C)C[C@H](C)/C=C/C=C/C=C/1C [SIROLIMUS], the Activity (S2 [1]) was “Active”, the Activity (S2 [2]) was “Dose-dependent effect” and the Activity (S2 [3]) was “inactive”. For the same compound, the Activity (S2 [4]) was “Active”, the Ratio [5] was 6 and the Ratio [6] was 22. It also gave a Ratio [7] of 15, a Ratio [8] of 50 and a Ratio [9] of 75. The Activity (S2 [10]) was “tde”, the Activity (S2 [11]) was “inactive” and the Activity (S2 [12]) was “inactive”. For the same compound, the Activity (Drosophila melanogaster [13]) was “Active” and the Activity (Drosophila melanogaster [14]) was “Active”.

In the case of CO[C@H]1[C@@H](O)[C@H](C)C[C@H](C)/C=C/C=C/C=C(\C)[C@@H](c2c[nH]c3c(C)cccc23)C[C@@H]2CC[C@@H](C)[C@@](O)(O2)C(=O)C(=O)N2CCCC[C@H]2C(=O)O[C@H]([C@H](C)C[C@@H]2CC[C@@H](O)[C@H](OC)C2)C[C@H](O)[C@H](C)/C=C(\C)[C@H]1O, the Activity (S2 [1]) was “inactive”.
